Among the test systems are M14; 786-0; ACHN; SK-OV-3; HL-60; U-251; UACC-62; EKVX; UO-31; OVCAR-4; SR; K562; SF-268; KM-20L2; HT-29; CCRF-CEM; OVCAR-8; COLO 205; PC-3; NCI/ADR-RES.
Assay in all cases: NCI tumour cell line growth inhibition, 48 h

Each structure is given as a SMILES string.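 Dose response: 5 concentrations. Exposure: 48 h. Format: 96-well plates. Endpoint: linear interpolation; highest concentration if not reached. At the GI50, growth is halved.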 The source made the active and inactive calls. Rule as the data show it: active = GI50 up to about 1.1 µM and inactive = higher.

As to `O=C(CC(=O)c1ccccc1)C(=O)NC12CC3CC(CC(C3)C1)C2`, the GI50 with M14 is > 100 µM (inactive); in the experiment on 786-0, > 56.2 µM (inactive); in the experiment on ACHN, > 100 µM (inactive); in the experiment on SK-OV-3 it was > 100 µM (inactive); with HL-60, > 48.5 µM (inactive); in the experiment on U-251, > 88.9 µM (inactive). Also, the GI50 was > 100 µM (inactive) in the experiment on UACC-62; > 100 µM (inactive) with EKVX; > 100 µM (inactive) in the experiment on UO-31; > 100 µM (inactive) in the experiment with OVCAR-4; > 100 µM (inactive) in the experiment with SR; > 56.9 µM (inactive) in the experiment on K562. The GI50 was > 91.4 µM (inactive) with SF-268; > 75.7 µM (inactive) in the experiment with KM-20L2; > 100 µM (inactive) in the experiment with HT-29; > 49.2 µM (inactive) in the experiment on CCRF-CEM; > 100 µM (inactive) in the experiment on OVCAR-8; > 45 µM (inactive) with COLO 205.

With `CS(=O)(=O)NNS(=O)(=O)c1ccc(F)cc1`, the GI50 with M14, with 786-0, in the experiment with ACHN, in the experiment with HL-60, with U-251 and with UACC-62 was > 100 µM (inactive) in each case. In addition, the GI50 with EKVX, in the experiment on UO-31, in the experiment with OVCAR-4, in the experiment on SR, in the experiment with K562 and in the experiment with SF-268 was > 100 µM (inactive) throughout. Besides, the GI50 in the experiment on KM-20L2, with HT-29, in the experiment on CCRF-CEM, in the experiment on OVCAR-8 and with COLO 205 was > 100 µM (inactive) throughout.

`Cc1cccc(N2C(=O)C(Cl)=C(Cl)C2=O)c1`: the GI50 in the experiment on M14 is > 55.8 µM (inactive); with 786-0 it was > 54.1 µM (inactive); in the experiment on ACHN, > 49.1 µM (inactive); with SK-OV-3, > 100 µM (inactive); in the experiment with HL-60, > 100 µM (inactive); with U-251 it was > 100 µM (inactive). Besides, the GI50 in the experiment with UACC-62 is > 64.7 µM (inactive); in the experiment on EKVX it was > 74 µM (inactive); in the experiment on UO-31 it was > 100 µM (inactive); in the experiment with OVCAR-4, > 46.3 µM (inactive); in the experiment with SR, 18.2 µM (inactive); in the experiment with K562, 35.3 µM (inactive). Also, the GI50 in the experiment with SF-268 was 97.3 µM (inactive); in the experiment on KM-20L2, > 100 µM (inactive); in the experiment with HT-29, > 62.2 µM (inactive); with CCRF-CEM it was 18.5 µM (inactive); in the experiment with OVCAR-8, > 100 µM (inactive); with COLO 205, > 69 µM (inactive).

On to `COc1ccc2c(c1)[n+]([O-])c(-c1ccc(Cl)c(Cl)c1)c(N)[n+]2[O-]`, for which the GI50 in the experiment with M14 is 25.7 µM (inactive); with 786-0, 36.7 µM (inactive); in the experiment on ACHN, 42.6 µM (inactive); with SK-OV-3, 55.1 µM (inactive); in the experiment with HL-60, 23.7 µM (inactive); in the experiment with U-251 it was 35.1 µM (inactive). Also, the GI50 is 33.6 µM (inactive) with EKVX; 39.7 µM (inactive) in the experiment with UO-31; 28.7 µM (inactive) in the experiment on OVCAR-4; 45 µM (inactive) in the experiment on SR; 40.7 µM (inactive) with K562; 37.1 µM (inactive) in the experiment with SF-268. Also, the GI50 with KM-20L2 is 32.3 µM (inactive); in the experiment with HT-29, 37.5 µM (inactive); in the experiment with OVCAR-8, 34.9 µM (inactive); with COLO 205, 19 µM (inactive).

With `COc1cc2cnc3c4cc(O)ccc4ccc3c2cc1OC`, the GI50 is > 100 µM (inactive) in the experiment on M14; 61.8 µM (inactive) in the experiment with 786-0; > 100 µM (inactive) in the experiment with ACHN; > 100 µM (inactive) in the experiment with SK-OV-3; 33.2 µM (inactive) in the experiment with HL-60; 10.8 µM (inactive) in the experiment on U-251. Also, the GI50 was 72.4 µM (inactive) in the experiment on UACC-62; > 100 µM (inactive) in the experiment with EKVX; > 100 µM (inactive) in the experiment on UO-31; 26.7 µM (inactive) in the experiment with OVCAR-4; 34.2 µM (inactive) in the experiment on SR; 19.7 µM (inactive) with K562. Also, the GI50 in the experiment on SF-268 was 23.6 µM (inactive); in the experiment with KM-20L2 it was > 100 µM (inactive); with HT-29, > 100 µM (inactive); in the experiment on CCRF-CEM, 29.9 µM (inactive); in the experiment on OVCAR-8, 23.6 µM (inactive); in the experiment with COLO 205, 12.9 µM (inactive).

Consider `COC(=N)/C(=C1\OC(=N)C(c2ccc(Cl)cc2)=C1O)c1ccc(Cl)cc1`, for which the GI50 in the experiment on M14 was > 100 µM (inactive); with 786-0, > 100 µM (inactive); with ACHN it was > 100 µM (inactive); in the experiment with SK-OV-3, > 100 µM (inactive); in the experiment with HL-60 it was 81.7 µM (inactive); in the experiment on U-251 it was > 100 µM (inactive). Moreover, the GI50 in the experiment on UACC-62, with EKVX, in the experiment with UO-31, with OVCAR-4, in the experiment with SR and in the experiment on K562 was > 100 µM (inactive) in each case. In addition, the GI50 is > 100 µM (inactive) in the experiment on SF-268; > 100 µM (inactive) with KM-20L2; > 100 µM (inactive) in the experiment with HT-29; 70.5 µM (inactive) with CCRF-CEM; > 100 µM (inactive) in the experiment with OVCAR-8; > 100 µM (inactive) with COLO 205.

In the case of `CCCC(C(=O)OC)C1N/C(=N/C#N)N(Cc2ccccc2)C1=O` (stereo not given), the GI50 in the experiment with M14, in the experiment on 786-0, in the experiment with ACHN, with SK-OV-3, in the experiment on HL-60 and in the experiment on U-251 was > 100 µM (inactive) each time. The GI50 with UACC-62 is > 100 µM (inactive); in the experiment with EKVX it was > 100 µM (inactive); in the experiment with UO-31, 67.1 µM (inactive); in the experiment on OVCAR-4, > 100 µM (inactive); in the experiment on SR, 91.2 µM (inactive); in the experiment with K562, 66.4 µM (inactive). Besides, the GI50 with SF-268, in the experiment on KM-20L2, with HT-29, in the experiment with CCRF-CEM, in the experiment on OVCAR-8 and in the experiment on COLO 205 was > 100 µM (inactive) each time.

Take `COc1ccccc1N1C(=O)C2c3[nH]c4ccccc4c3C3CCC(C(C)(C)C)CC3C2C1=O` (stereo not given): the GI50 with M14, with 786-0, in the experiment on ACHN, in the experiment with SK-OV-3, in the experiment with HL-60 and in the experiment with U-251 was > 100 µM (inactive) throughout. The GI50 in the experiment on UACC-62 was > 100 µM (inactive); with EKVX, > 100 µM (inactive); with UO-31 it was > 100 µM (inactive); with OVCAR-4 it was > 100 µM (inactive); in the experiment on SR it was 97.1 µM (inactive); in the experiment on K562 it was > 100 µM (inactive). Further, the GI50 in the experiment on SF-268, in the experiment with KM-20L2, with HT-29, with CCRF-CEM, with OVCAR-8 and with COLO 205 was > 100 µM (inactive) in each case.

`CCCCC1(OC(=O)CCC(=O)O)CCC2(CCC(C)C(C/C=C(C)/C=C/C(O)C(C)/C=C/C(=O)O)O2)OC1CC/C(C)=C/C(=O)O` (stereo not given): the GI50 with M14 was 1.92 µM (inactive); in the experiment on 786-0, 3.52 µM (inactive); in the experiment with ACHN it was 5.74 µM (inactive); in the experiment with SK-OV-3, 6.17 µM (inactive); in the experiment with HL-60, 4.57 µM (inactive); in the experiment with U-251, 4.35 µM (inactive). The GI50 in the experiment on UACC-62 was 0.971 µM (active); with EKVX it was 5.2 µM (inactive); in the experiment with UO-31 it was 2.97 µM (inactive); with OVCAR-4 it was 2.1 µM (inactive); in the experiment on SR, 3.04 µM (inactive); in the experiment with K562 it was 2.8 µM (inactive). The GI50 was 2.51 µM (inactive) with SF-268; 10.9 µM (inactive) with KM-20L2; 10.3 µM (inactive) with HT-29; 3.94 µM (inactive) with CCRF-CEM; 2.84 µM (inactive) in the experiment with OVCAR-8; 16.6 µM (inactive) in the experiment on COLO 205.

Regarding `CC1(C)OCN(c2ccc(Cl)cc2)Cn2c1nc1ccccc12`, the GI50 in the experiment with PC-3 was 1.94 µM (inactive); in the experiment with 786-0 it was > 89.9 µM (inactive); in the experiment on ACHN it was 31.8 µM (inactive); in the experiment with SK-OV-3, > 100 µM (inactive); with HL-60 it was 11.2 µM (inactive); in the experiment on U-251 it was 22.3 µM (inactive). Further, the GI50 was 1.41 µM (inactive) in the experiment on UACC-62; 63 µM (inactive) in the experiment on EKVX; 9.79 µM (inactive) in the experiment with UO-31; 51.4 µM (inactive) in the experiment with OVCAR-4; 9.25 µM (inactive) with SR; 0.904 µM (active) in the experiment with K562. Besides, the GI50 is 15.8 µM (inactive) in the experiment with SF-268; 1.82 µM (inactive) in the experiment with KM-20L2; > 100 µM (inactive) with HT-29; 27 µM (inactive) in the experiment with NCI/ADR-RES; 11.4 µM (inactive) in the experiment on CCRF-CEM; 69 µM (inactive) with OVCAR-8. The GI50 in the experiment with COLO 205 is 3.34 µM (inactive).

In the case of `Cc1c2ccncc2c(C)c2c1[nH]c1ccc(OCC(F)(F)F)cc12`, the GI50 in the experiment on M14 was 1.96 µM (inactive); with 786-0 it was 1.47 µM (inactive); in the experiment on ACHN it was 1.55 µM (inactive); with SK-OV-3, 1.82 µM (inactive); with HL-60 it was 2.08 µM (inactive); with U-251 it was 1.6 µM (inactive). In addition, the GI50 in the experiment with EKVX was 1.61 µM (inactive); in the experiment on UO-31 it was 1.73 µM (inactive); in the experiment with OVCAR-4, 2.03 µM (inactive); in the experiment on SR, 0.828 µM (active); with K562, 1.08 µM (active); in the experiment on SF-268, 1.55 µM (inactive). Further, the GI50 in the experiment with KM-20L2 is 1.47 µM (inactive); in the experiment on HT-29, 1.53 µM (inactive); in the experiment on CCRF-CEM, 1.21 µM (inactive); in the experiment with OVCAR-8, 1.32 µM (inactive); in the experiment with COLO 205, 1.55 µM (inactive).

(Values after ChEMBL document CHEMBL1201862, “PubChem BioAssay data set” (2004).)
